PubChem BioAssay (NCI)
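GI50 marks 50% less growth. TGI marks complete inhibition of growth.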

Tests used:
Experiment in all cases: NCI tumour cell line growth inhibition, 384-well format
UO-31 renal = tested on: UO-31 renal
NCI/ADR-RES ovarian = tested on: NCI/ADR-RES ovarian
SNB-19 CNS = tested on: SNB-19 CNS
HOP-92 NSCLC = tested on: HOP-92 NSCLC
PC-3 prostate = tested on: PC-3 prostate
SF-268 CNS = tested on: SF-268 CNS
HS 578T breast = tested on: HS 578T breast
TK-10 renal = tested on: TK-10 renal
MCF7 breast = tested on: MCF7 breast
T-47D breast = tested on: T-47D breast
UACC-62 melanoma = tested on: UACC-62 melanoma
CAKI-1 renal = tested on: CAKI-1 renal
MDA-MB-468 breast = tested on: MDA-MB-468 breast
SK-MEL-2 melanoma = tested on: SK-MEL-2 melanoma
HOP-62 NSCLC = tested on: HOP-62 NSCLC
SF-295 CNS = tested on: SF-295 CNS
OVCAR-4 ovarian = tested on: OVCAR-4 ovarian
HCT-15 colon = tested on: HCT-15 colon
UACC-257 melanoma = tested on: UACC-257 melanoma
SF-539 CNS = tested on: SF-539 CNS
DU-145 prostate = tested on: DU-145 prostate
OVCAR-3 ovarian = tested on: OVCAR-3 ovarian
786-0 renal = tested on: 786-0 renal
CCRF-CEM leukemia = tested on: CCRF-CEM leukemia
HL-60(TB) leukemia = tested on: HL-60(TB) leukemia
U251 glioblastoma = tested on: U251 glioblastoma
MDA-MB-231 breast = tested on: MDA-MB-231 breast
NCI-H23 lung = tested on: NCI-H23 lung
COLO 205 colon = tested on: COLO 205 colon
IGROV1 ovarian = tested on: IGROV1 ovarian
SN12C renal = tested on: SN12C renal
SNB-75 CNS = tested on: SNB-75 CNS
SK-OV-3 ovarian = tested on: SK-OV-3 ovarian
MOLT-4 leukemia = tested on: MOLT-4 leukemia
SK-MEL-5 melanoma = tested on: SK-MEL-5 melanoma
NCI-H322M lung = tested on: NCI-H322M lung
SW-620 colon = tested on: SW-620 colon
M14 melanoma = tested on: M14 melanoma
A498 renal = tested on: A498 renal
EKVX NSCLC = tested on: EKVX NSCLC
RXF 393 renal = tested on: RXF 393 renal
K-562 leukemia = tested on: K-562 leukemia
MALME-3M melanoma = tested on: MALME-3M melanoma
HCT-116 colon = tested on: HCT-116 colon
OVCAR-5 ovarian = tested on: OVCAR-5 ovarian
HCC-2998 colon = tested on: HCC-2998 colon
KM12 colon = tested on: KM12 colon
NCI-H460 NSCLC = tested on: NCI-H460 NSCLC
ACHN renal = tested on: ACHN renal
NCI-H226 lung = tested on: NCI-H226 lung
HT29 colon = tested on: HT29 colon
SK-MEL-28 melanoma = tested on: SK-MEL-28 melanoma
SR leukemia = tested on: SR leukemia
MDA-MB-435 melanoma = tested on: MDA-MB-435 melanoma
RPMI-8226 leukemia = tested on: RPMI-8226 leukemia
LOX IMVI melanoma = tested on: LOX IMVI melanoma
A549 NSCLC = tested on: A549 NSCLC
BT-549 breast = tested on: BT-549 breast
NCI-H522 lung = tested on: NCI-H522 lung

With C[C@@H](N)C1CCC(C(=O)Nc2ccncc2)CC1 (stereo partly drawn) the GI50 (UO-31 renal) was greater than 100 µM, the TGI (UO-31 renal) was greater than 100 µM and the GI50 (NCI/ADR-RES ovarian) was greater than 100 µM. For the same molecule, the TGI (NCI/ADR-RES ovarian) was greater than 100 µM, the GI50 (SNB-19 CNS) was greater than 100 µM and the TGI (SNB-19 CNS) was greater than 100 µM. For the same molecule, the GI50 (HOP-92 NSCLC) was 75.8 µM, the TGI (HOP-92 NSCLC) was greater than 100 µM and the GI50 (PC-3 prostate) was greater than 100 µM. It also gave a TGI (PC-3 prostate) greater than 100 µM, a GI50 (SF-268 CNS) of 69.7 µM and a TGI (SF-268 CNS) greater than 100 µM. It also gave a GI50 (HS 578T breast) of 38.5 µM, a TGI (HS 578T breast) greater than 100 µM and a GI50 (TK-10 renal) greater than 100 µM. It also gave a TGI (TK-10 renal) greater than 100 µM, a GI50 (MCF7 breast) of 60.3 µM and a TGI (MCF7 breast) greater than 100 µM. The GI50 (T-47D breast) was 99.3 µM, the TGI (T-47D breast) was greater than 100 µM and the GI50 (UACC-62 melanoma) was greater than 100 µM. The TGI (UACC-62 melanoma) was greater than 100 µM, the GI50 (CAKI-1 renal) was greater than 100 µM and the TGI (CAKI-1 renal) was greater than 100 µM. It also gave a GI50 (MDA-MB-468 breast) of 31 µM, a TGI (MDA-MB-468 breast) greater than 100 µM and a GI50 (SK-MEL-2 melanoma) greater than 100 µM. It also gave a TGI (SK-MEL-2 melanoma) greater than 100 µM, a GI50 (HOP-62 NSCLC) of 77.4 µM and a TGI (HOP-62 NSCLC) greater than 100 µM. For the same molecule, the GI50 (SF-295 CNS) was 77.8 µM, the TGI (SF-295 CNS) was greater than 100 µM and the GI50 (OVCAR-4 ovarian) was greater than 100 µM. It also gave a TGI (OVCAR-4 ovarian) greater than 100 µM, a GI50 (HCT-15 colon) greater than 100 µM and a TGI (HCT-15 colon) greater than 100 µM. The GI50 (UACC-257 melanoma) was greater than 100 µM, the TGI (UACC-257 melanoma) was greater than 100 µM and the GI50 (SF-539 CNS) was greater than 100 µM. For the same molecule, the TGI (SF-539 CNS) was greater than 100 µM, the GI50 (DU-145 prostate) was greater than 100 µM and the TGI (DU-145 prostate) was greater than 100 µM. For the same molecule, the GI50 (OVCAR-3 ovarian) was greater than 100 µM, the TGI (OVCAR-3 ovarian) was greater than 100 µM and the GI50 ([…]-0 renal) was greater than 100 µM. For the same molecule, the TGI (786-0 renal) was greater than 100 µM, the GI50 (CCRF-CEM leukemia) was greater than 100 µM and the TGI (CCRF-CEM leukemia) was greater than 100 µM. It also gave a GI50 (HL-60(TB) leukemia) of 64 µM, a TGI (HL-60(TB) leukemia) greater than 100 µM and a GI50 (U251 glioblastoma) of 87.8 µM. The TGI (U251 glioblastoma) was greater than 100 µM, the GI50 (MDA-MB-231 breast) was greater than 100 µM and the TGI (MDA-MB-231 breast) was greater than 100 µM. For the same molecule, the GI50 (NCI-H23 lung) was greater than 100 µM, the TGI (NCI-H23 lung) was greater than 100 µM and the GI50 (COLO 205 colon) was greater than 100 µM. For the same molecule, the TGI (COLO 205 colon) was greater than 100 µM, the GI50 (IGROV1 ovarian) was 80 µM and the TGI (IGROV1 ovarian) was greater than 100 µM. It also gave a GI50 (SN12C renal) greater than 100 µM, a TGI (SN12C renal) greater than 100 µM and a GI50 (SNB-75 CNS) of 55.9 µM. It also gave a TGI (SNB-75 CNS) greater than 100 µM, a GI50 (SK-OV-3 ovarian) greater than 100 µM and a TGI (SK-OV-3 ovarian) greater than 100 µM. For the same molecule, the GI50 (MOLT-4 leukemia) was 50.7 µM, the TGI (MOLT-4 leukemia) was greater than 100 µM and the GI50 (SK-MEL-5 melanoma) was greater than 100 µM. It also gave a TGI (SK-MEL-5 melanoma) greater than 100 µM, a GI50 (NCI-H322M lung) greater than 100 µM and a TGI (NCI-H322M lung) greater than 100 µM. For the same molecule, the GI50 (SW-620 colon) was 92 µM, the TGI (SW-620 colon) was greater than 100 µM and the GI50 (M14 melanoma) was greater than 100 µM. For the same molecule, the TGI (M14 melanoma) was greater than 100 µM, the GI50 (A498 renal) was greater than 100 µM and the TGI (A498 renal) was greater than 100 µM. It also gave a GI50 (EKVX NSCLC) greater than 100 µM, a TGI (EKVX NSCLC) greater than 100 µM and a GI50 (RXF 393 renal) of 40.9 µM. It also gave a TGI (RXF 393 renal) greater than 100 µM, a GI50 (K-562 leukemia) of 39.9 µM and a TGI (K-562 leukemia) greater than 100 µM. It also gave a GI50 (MALME-3M melanoma) greater than 100 µM, a TGI (MALME-3M melanoma) greater than 100 µM and a GI50 (HCT-116 colon) greater than 100 µM. It also gave a TGI (HCT-116 colon) greater than 100 µM, a GI50 (OVCAR-5 ovarian) greater than 100 µM and a TGI (OVCAR-5 ovarian) greater than 100 µM. For the same molecule, the GI50 (HCC-2998 colon) was 85.3 µM, the TGI (HCC-2998 colon) was greater than 100 µM and the GI50 (KM12 colon) was greater than 100 µM. For the same molecule, the TGI (KM12 colon) was greater than 100 µM, the GI50 (NCI-H460 NSCLC) was greater than 100 µM and the TGI (NCI-H460 NSCLC) was greater than 100 µM. The GI50 (ACHN renal) was greater than 100 µM, the TGI (ACHN renal) was greater than 100 µM and the GI50 (NCI-H226 lung) was greater than 100 µM. The TGI (NCI-H226 lung) was greater than 100 µM, the GI50 (HT29 colon) was 68.4 µM and the TGI (HT29 colon) was greater than 100 µM. It also gave a GI50 (SK-MEL-28 melanoma) greater than 100 µM, a TGI (SK-MEL-28 melanoma) greater than 100 µM and a GI50 (SR leukemia) of 7.94 µM. It also gave a TGI (SR leukemia) of 21.9 µM, a GI50 (MDA-MB-435 melanoma) greater than 100 µM and a TGI (MDA-MB-435 melanoma) greater than 100 µM. The GI50 (RPMI-8226 leukemia) was 88.4 µM, the TGI (RPMI-8226 leukemia) was greater than 100 µM and the GI50 (LOX IMVI melanoma) was greater than 100 µM. It also gave a TGI (LOX IMVI melanoma) greater than 100 µM, a GI50 (A549 NSCLC) greater than 100 µM and a TGI (A549 NSCLC) greater than 100 µM. It also gave a GI50 (BT-549 breast) of 25.9 µM, a TGI (BT-549 breast) greater than 100 µM and a GI50 (NCI-H522 lung) greater than 100 µM. The TGI (NCI-H522 lung) was greater than 100 µM.
